Results as given in a melting point compilation (Tetko et al.; mined from patent text by program, amines drawn as free bases though some values may be those of a salt).

melting point [°C] | Structure (SMILES)
189 to 191 | COCCc1nc2c(N)nc3ccccc3c2n1CCCNS(=O)(=O)c1ccc(C)cc1
> 300 | Cc1[nH]c(=O)[nH]c1C(N)=O
89 to 93 | Cc1ccc2c3c(ccc2n1)OC[C@H](CNC[C@@H]1CCc2[nH]c4ccc(F)cc4c2C1)O3
156 | COc1ccccc1CNc1ccc2cc(Nc3nnn(C(C)(C)C)n3)ccc2n1
222 to 225 | CN1C(=O)[C@@](NC(=O)Nc2cccc(N(C)c3nnn[nH]3)c2)(C2CCCCC2)N=Cc2ccccc21
88 | CN(CC(O)c1ccc(Cl)c(Cl)c1)C(=O)OC(C)(C)C (stereo unspecified)
198 to 200 | CN(C)S(=O)(=O)c1ccc2c(c1)S(=O)(=O)NC2=O
160 | O=C(O)C1CCCN1C(=O)c1ccc(-c2ccccc2)cc1 (stereo unspecified)
168 to 169 | COCCOCCCn1c(C=O)c(Br)c2c3c(c(-c4ccccc4Cl)cc21)C(=O)NC3=O
157 to 158 | COCCOc1ccc(/C=C/C(=O)NS(=O)(=O)c2cccc(Cl)c2)c(Oc2ncc(C(F)(F)F)cc2Cl)c1
122 to 124 | CCCCN(CC1Cc2cc(Cl)cc(Cl)c2O1)C(=O)n1cncn1 (stereo unspecified)
155 to 157 | Cc1ccc2oc(NC(CN3CCN(Cc4ccc(Cl)c(Cl)c4)CC3)C(C)C)nc2c1 (stereo unspecified)
65 to 67 | CC(C)(Oc1ccc(CN(Cc2ccccc2)c2ccc(Cl)cc2)cc1)C(=O)O
82 to 84 | C[C@@H](O)CCN1CCC(c2noc3cc(F)ccc23)CC1
193 to 194 | O=C(Nc1ccc(N2CCN(C(=O)C(F)(F)F)CC2)cc1)C(F)(F)F
154 to 156 | Cc1ccc(S(=O)(=O)NC(=O)N2C(=O)C(c3ccccc3)N2C(c2ccccc2)c2ccccc2)cc1 (stereo unspecified)
160 to 162 | CN1C(=O)c2c(c3ccc(Cl)cc3n2CCN2CCCCC2)Oc2ccccc21
214 to 216 | CC(=O)SCC(Cc1ccccc1)C(=O)Nc1cc(C(=O)O)ccc1C (stereo unspecified)
190 to 192 | CCCCc1ncc(/C=C(\Cc2cccs2)C(=O)O)n1Cc1ccc(C#N)cc1
111 to 114 | O=C(CCCN1CCC(=C(c2ccccc2)c2ccccc2)CC1)c1ccc(F)cc1
160 | CC(C)CN1N=C2C=NC(c3ccccc3)=CN2C1CC(=O)O (stereo unspecified)
299 to 300 | Cc1n[nH]c2c1nc(-c1ccccc1)c1cc(Br)ccc12
164 to 165 | O=C1CCNC(=O)C1C(=O)c1ccccc1 (stereo unspecified)
143 to 147 | CC(=O)OC1CSC(Oc2cc(Br)cnc2Cl)C(OC(C)=O)C1OC(C)=O (stereo unspecified)

melting point [°C] | Structure (SMILES)
105 to 107 | COC(=O)C(C(C)C)N1CC(NC(=O)Cc2ccccc2)C1=O (stereo unspecified)
126 to 128 | CC(C)(C)OC(=O)N[C@@H]1C[C@H](CO)[C@@H](O)C1
146 | CC(C)C(=O)Oc1cccc2c1C(=O)c1c(O)cccc1C2C(=O)C1CCCCC1 (stereo unspecified)
124 to 126 | CCCCc1nc2c(N)nc3ccccc3c2n1CCNC(=O)CCCCC1SCC2NC(=O)NC21 (stereo unspecified)
131 to 132 | COc1ccc(C(=NO)c2ccc(OC)cc2)cc1
194 | N#CCN1CCC(NC(=O)c2cc(Cl)c(N)c3c2OCCC3)CC1
170 to 172 | N#Cc1ccc2nc(C(O)(Cn3cncn3)c3ccc(F)cc3F)sc2c1 (stereo unspecified)
> 230 | CCOC(=O)c1cc(-c2csc(-c3ccnc(NC)c3)n2)c(=O)[nH]c1C(C)C
177 to 179 | CC(CCCC(F)(C(F)(F)F)C(F)(F)F)C1CC(=O)C2=C3CCC4CC(O)CCC4(C)C3CCC21C (stereo unspecified)
102 to 104 | CC1(C)C=C(c2ccc3ccccc3n2)c2cc(C#N)ccc2O1
98 | C#CCn1c(C(F)(F)F)c(C(O)C#C)c2ccccc21 (racemic)
117 to 120 | O=C1c2ccccc2CN1C1CCN(c2ccc(C(OCCCc3ccccc3)c3ccccc3)cc2)CC1 (stereo unspecified)
88 to 105 | COc1cc2c(cc1Nc1ncc(Cl)c(Nc3ccccc3S(=O)(=O)C(C)C)n1)CCN(CC(=O)N1CCCC1)CC2
135 to 136 | COc1cc2c(cc1S(=O)(=O)c1cccs1)[C@@H](N1CCCC1=O)[C@H](O)C(C)(C)O2 (relative stereo)
92 to 93 | C=CCC1COC(CC)(CC(=O)OC)c2[nH]c3c(CC)cccc3c21 (stereo unspecified)
140 to 141 | CCOC(=N)CC1(C)OCCc2c1[nH]c1ccccc21 (stereo unspecified)
133 to 134 | C=CCSc1nc(N)nc2c1ncn2[C@@H]1C[C@H](CO)[C@@H](O)C1
105 to 107 | Cc1ncn(-c2ccc([N+](=O)[O-])cc2F)n1
86 to 87 | OC1Cc2ccccc2Sc2cc(Cl)c(F)cc21 (stereo unspecified)
228 to 231 | CCCC(=O)c1c[nH]c2cc(COC(=O)c3ccccc3)ccc2c1=O
172 to 174 | COC(=O)C(c1cc2c(cc1Cl)OCO2)c1c[nH]c2cc(Br)ccc12 (stereo unspecified)
213 to 215 | O=P(c1ccccc1)(c1ccccc1)c1cc(P(=O)(c2ccccc2)c2ccccc2)ncn1
181 to 183 | CC1=C(C(=O)OC(C)(C)C)C(c2cc(Cl)ccc2Cl)C(C(=O)OC(C)(C)C)=C(C)N1
161 to 162 | COC(=O)c1cc(C(=O)N2CCC(CO)CC2)c2cc(Cc3ccc(F)cc3)cnc2c1O

melting point [°C] | Structure (SMILES)
130 to 131 | CCCCc1cc2cn(C3CCCC3)c(=O)nc2o1
76.5 to 78.1 | O=C(NC[C@@H]1CN2C(=O)C[C@H]2O1)c1cc(F)c(F)cc1F (racemic)
127 | CSc1ccc(C(=O)c2cc(-c3cccnc3)c(N3CCOCC3)s2)cc1
171 to 172 | CSc1cc(C)nc(SC)c1NC(=O)CBr
172 to 174 | COc1ccc(CCOc2ccc(C(=O)N/C(=C\c3ccc(OCC(F)F)cc3)C(=O)NCCO)cc2)cc1
274 to 275 | Sc1nnc(-c2ccc3ncsc3c2)o1
193 to 196 | Cc1c(Cl)cccc1NC(=O)Nc1ccc(-n2nc(C(F)(F)F)cc2C(F)(F)F)cc1
229 | Cc1cc(-c2cnn3c(C(F)(F)F)cc(-c4ccc(OCC(F)(F)F)c(C(F)(F)F)c4)nc23)cc(C)n1
121 to 122 | Oc1c2c(nn1-c1ccccn1)CCCC2
83 to 85 | O=C(O)CCc1ccc(Cl)cc1F
100 | COC(=O)C=C1C(=O)NC(=O)N1C
187 to 189 | O=C1c2ccccc2C(=O)N1Nc1ccc(/C=C/C(c2cc(Cl)c(Cl)c(Cl)c2)C(F)(F)F)cc1 (stereo unspecified)
109 to 111 | COc1ccc(CONS(=O)(=O)c2ccc(C)cc2)cc1
78 to 80 | CCC(CC)N1CCN(C)c2c1cc(C)nc2Oc1c(C)cc(C)cc1C
195 to 197 | O=C(NCc1ccc(Cl)cc1)c1cn2c3c(cc(CN4CCOCC4)cc3c1=O)OCCC2
110 to 112 | CC(Oc1c(Br)cc(Br)cc1Br)c1cc(Br)c(Br)cc1Br (stereo unspecified)
129 to 131 | COc1cc(COc2nn(-c3ccccc3)cc2/C=C/C(N)=S)ccc1OCc1nc(-c2ccco2)oc1C
86 to 88 | c1ccc(CSc2nc(SCc3ccccc3)n(-c3ncccn3)n2)cc1
> 270 | CCn1c(=O)c2[nH]c(/C=C/c3ccc(OC)c(F)c3)nc2n(CC)c1=O
205 to 206 | CCCCc1ncc(/C=C(\Cc2cccs2)C(=O)O)n1Cc1ccccc1[N+](=O)[O-]
70 to 71 | OCCCc1oc(Sc2ccccn2)nc1-c1ccc(Cl)cc1
59 to 61 | COC(=O)CNC(=O)c1ncccc1O
106 to 107 | CC(C)(C)OC(=O)NC(Cc1ccccc1)C1CC(Cc2ccccc2)=NO1 (stereo unspecified)
234 | O=S(=O)(c1cccc(-c2cc(-c3nc(-c4ccc(C(F)(F)F)cc4)cc(C(F)(F)F)n3)ccn2)c1)N1CCC(O)C1 (racemic)

melting point [°C] | Structure (SMILES)
143 to 146 | CCN1C(=O)C(C)(C)C(=O)N(C)c2cc(CN(CCc3cccnc3)S(=O)(=O)c3ccccc3)ccc21
113 to 122 | COc1cc(OCCN2CCOCC2)ccc1/C=C/c1cc(/C=C/c2ccc3cc[nH]c3c2)n[nH]1
243 to 244 | Cc1cc(-c2nnc3c4ccccc4c(OCc4ccn(C)n4)nn23)no1
97.5 to 98.5 | CCCCNC(=S)N1CCN(c2cnccn2)CC1
164 to 166 | CC(C)=CCCNC(=S)Nc1nc(C)cs1
63 to 65 | FC(F)(F)Cn1cc(C#Cc2cccc(OCC3CC3)c2)cn1
206 | CC(C)(C)Sc1c(CC(C)(C)C(=O)O)n(Cc2ccc(Cl)cc2)c2c(OCc3ccc4ccccc4n3)cccc12
199 to 201 | CSc1nn2c(N3CCN(C)CC3)cc(CN3CCOCC3)nc2c1S(=O)(=O)c1ccccc1
41 to 43 | COc1ccc2cc([C@H](C)C(=O)OCC(=O)N(C)CC(=O)OCCCO)ccc2c1
110 | OCCc1c(-c2ccccc2)n2nnnc2n2ncnc12
138 to 139 | CN1CC(c2cccc(Br)c2)=C(c2ccc(S(C)(=O)=O)cc2)C1=O
140 to 143 | CC(=O)NC(=CC(C)C)c1ccccc1N1CCCCC1
175 to 178 | CC(C)(C)c1cc(C=Cc2ccccc2NC(=O)N(Cc2ccccc2)Cc2ccccc2)cc(C(C)(C)C)c1O
95 to 96 | Cc1cc(O)c2c(c1)CCCC2
189 to 193 | O=c1ccn(CCO)c(C(O)c2ccc(Br)cc2)c1O (stereo unspecified)
110 to 112 | C[C@@H](F)c1nc(N)nc(N[C@@H]2CCOc3ccccc32)n1
233 | O=C(C=Cc1ccc2c(c1)OCO2)N1CCc2c([nH]c3ccccc23)C1c1ccc2c(c1)OCO2 (stereo unspecified)
70 to 71 | FC(F)(F)Oc1ccc2nccc(N3CCN(C(=S)NCc4ccccc4)CC3)c2c1
155 to 162 | Nc1nc2ccc(S(=O)(=O)n3c(CCCC(=O)O)cc4cc(Cl)ccc43)cc2s1
145 | CCS(=O)(=O)c1nnc(N(C(C)=O)C(=O)N(C)C)s1
178 to 180 | O=C(O)c1ccccc1-c1nnc(-c2ccccc2)s1
53 to 54 | CCCCCCCCCCCCC(OC)C1=CC(=O)OC1O (stereo unspecified)

Structure (SMILES) | melting point [°C]
COC(=O)c1nccn1C(c1ccccc1)(c1ccccc1)c1ccccc1 | 186 to 188
CCCCCC(O)C1C(=O)NC(C(=O)SCCNC(C)=O)(C(O)C2C=CCCC2)C1(C)O (stereo unspecified) | 80
